Measurements published in paper PMC7900953, “Location of a single histidine within peptide carriers increases mRNA delivery” (The Journal of Gene Medicine, 2020).

Columns and labels:
MDA‐MB‐231 cells = experiment: In vitro transfection of luciferase-expressing mRNA with HK polyplexes; assay type: cell-based; conditions: for Effectiveness as carrier of mRNA: luciferase mRNA polyplexes; for Luciferase activity, RLU/µg-Protein: polyplex in Opti-MEM on cells 4 h, then DMEM/10% serum, luciferase 24 h later, mean ± SD
Procedure: Several HK peptides were examined for their ability to carry a luciferase‐expressing mRNA (CleanCap Firefly Luciferase mRNA; Trilink Biotechnologies, Inc., San Diego, CA, USA) into MDA‐MB‐231 cells (America Type Tissue Culture, Manassas, VA, USA). In brief, 3 × 10^4 cells were plated into a 24‐well plate containing 500 μl of Dulbecco’s modified Eagle’s medium (DMEM) and 10% fetal bovine serum (Thermo Fisher Scientific, Waltham, MA, USA). After 24 hours, when the cells were 60–80% confluent, the media in each well was changed to Opti‐MEM (Thermo Fisher Scientific). To prepare HK polyplexes, mRNA (1 μg) in 50 μl of Opti‐MEM was briefly mixed well with one of the HK peptides (4–12 μg) and maintained at room temperature for 30 minutes. This polyplex was then added dropwise to the cells. After 4 hours, the Opti‐MEM media was removed and replaced with 0.5 ml of DMEM/10% serum. Twenty‐four hours later, the cells were lysed, and luciferase activity (Promega Corporation, Madison, WI, USA) was measured. ^28 Also, a negative control (mRNA without the carrier) was added to the cells and luciferase activity measured 24 hours later.
FIGURE 1 Comparison of H3K(+H)4b and H3K4b peptides as carriers of mRNA. To form polyplexes, the mRNA (1 μg) was mixed with three different ratios of the HK (4, 8 and 12 μg) polymer for 30 minutes. The mRNA polyplexes were then added to the cells as described in the Materials and methods, and luciferase activity was measured 24 hours later. ***p < 0.001; ****p < 0.0001, H3K(+H)4b versus H3K4b
FIGURE 6 Comparing H3K(+H)4b and other four‐branched HK peptides for mRNA transfection. After polyplexes were formed with HK peptides (4 μg) and luciferase‐expressing mRNA (1 μg) and added to cells, luciferase activity was measured […] later. These HK peptides contained an additional histidine in the second motif.
FIGURE 7 Comparison of H3K(+H)4b with branched peptides without an additional histidine in the second motif. Polyplexes were formed with mRNA (1 μg) and various HK peptides (4 μg) and, after their addition to cells, luciferase activity was determined 24 h later. H3K(1+H)4b and H3K(3+H)4b peptides have an extra histidine in the first and third domains, respectively. H3K(1,3+H)4b has two additional histidines: one in the first and the other third motif. […] Unlike H3K(+H)4b, the predominant repeating motif of H2K4b in its branch is ‐HHK. ***p < 0.001, H3K(+H)4b versus H2K4b or H3K(1,3+H)4b; ****p < 0.0001, H3K(+H)4b versus H3K(1+H)4b or H3K(3+H)4b motifs
To prepare HK polyplexes, luciferase-expressing mRNA (1 µg) in 50 µl of Opti-MEM was briefly mixed with one of the HK peptides (4, 8, or 12 µg) and maintained at room temperature for 30 min. This polyplex was then added dropwise to the MDA-MB-231 cells and after four h, the Opti-MEM media was removed and replaced with DMEM/10% serum. Twenty-four hours later, luciferase activity was measured.

[1] = Particle size, polydispersity index (PDI) and zeta potential of polyplexes (dynamic light scattering); assay type: physicochemical; conditions: HK peptide (4 μg) + mRNA (1 μg), 25°C; for Zeta potential of polyplex / Size of polyplex: mean ± SD of three measurements; for Size of polyplex: DLS 90°, z‐average; for PDI of polyplex: DLS
Procedure: The size, PDI and zeta potential were determined with the Zetasizer (Malvern, Westborough, MA, USA) and analyzed with Zetasizer, version 6.2 (Malvern). Using dynamic light scattering at a 90° angle, the size of the particles were reported as the z‐average diameter from the intensity‐weighted size distribution. Prior to the measurements, the samples were equilibrated to 25°C for 2 minutes. Each measurement had at least 10 sub‐runs under the automatic mode of the software. The particle size, PDI and zeta potential data point represent the mean ± SD of three measurements. After mixing HK peptides (4 μg) and mRNA (1 μg) in 100 μl of defined media (Opti‐MEM, water, or DMEM/8% FBS) for 30 minutes, 100 μl of additional defined media was added to the polyplex solution (total volume 200 μl) to measure the size and PDI. To determine the zeta potential, 800 μl more of the media was added (total volume 1000 μl), mixed gently and then added to the disposable zeta cell.

Acid–base titration = assay type: physicochemical; conditions: 5 mg/ml, from pH 3.0, 5 μl aliquots of 0.05 M NaOH to about pH 9.0
Procedure: After the polymer solution [H2K4b, H3K4b, H3K(+H)4b and H4K4b] was adjusted to pH 3.0 (5 mg/ml; initial volume 1 ml), aliquots (5 μl) of NaOH (0.05 M) were stepwise added with the pH measured (FiveEasy™ meter; InLab Solids Pro‐ISM pH electrode; Mettler Toledo, Columbus, OH, USA). Titration was stopped at approximately pH 9.0.
FIGURE 2 Titration of different HK peptide solutions. Solutions of polymers (5 mg/ml) [H2K4b, H3K4b, H3K(+H)4b and H4K4b] were adjusted to pH 3 (initial volume 1 ml) and then 5‐μl aliquots of 0.05 N NaOH were stepwise added and the pH was measured

[2] = cited from earlier work
[3] = ratio 1:4 (wt:wt; mRNA:polymer; 1 µg mRNA, 4 µg HK)
[4] = ratio 1:8 (wt:wt; mRNA:polymer; 1 µg mRNA, 8 µg HK)
[5] = ratio 1:12 (wt:wt; mRNA:polymer; 1 µg mRNA, 12 µg HK)

Substance | Luciferase expression relative to H3K4b peptide (MDA‐MB‐231 cells; fold greater, ratio 4:1 (HK:mRNA; w:w)) | Effectiveness as carrier of mRNA (MDA‐MB‐231 cells) | Luciferase activity, RLU/µg-Protein (MDA‐MB‐231 cells; [3]) | Luciferase activity, RLU/µg-Protein (MDA‐MB‐231 cells; [4]) | Luciferase activity, RLU/µg-Protein (MDA‐MB‐231 cells; [5]) | Zeta potential of polyplex ([1]; DMEM/8%FBS) | Size of polyplex ([1]; DMEM/8%FBS) | PDI of polyplex ([1]; DMEM/8%FBS) | Zeta potential of polyplex ([1]; Opti‐MEM) | Size of polyplex ([1]; Opti‐MEM) | PDI of polyplex ([1]; Opti‐MEM) | Zeta potential of polyplex ([1]; Water) | Size of polyplex ([1]; Water) | PDI of polyplex ([1]; Water) | Buffering profile from pH titration curves (Acid–base titration) | Carrier of siRNA [2]
R = KHHHKHHHKHHHHKHHHK [H3K(+H)4b, four‐branched analogue of H3K4b with one extra histidine in the second ‐HHHK‐ motif] | 10 fold | effective carriers of mRNA | 1532.9±122.9 RLU/µg-Protein | 1656.3±202.5 RLU/µg-Protein | 1033.4±197 RLU/µg-Protein | −12.7 ± 1.04 mV | 289 ± 38.2 nm | 0.307 | 2.92 ± 1.83 mV | 1,004 ± 61.1 nm | 0.362 | 20.77 ± 1.12 mV | 234.9 ± 2.7 nm | 0.212 | minimal differences in their buffering profile | effective carriers of siRNA
R = KHHHKHHHKHHHKHHHK [H3K4b, four‐branched histidine‐lysine peptide with four ‐HHHK‐ motifs in each branch] | – | not effective carriers of mRNA | 156.8±41.8 RLU/µg-Protein | 62.1±13.2 RLU/µg-Protein | 18.1±4.0 RLU/µg-Protein | −12.1 ± 2.22 mV | 578 ± 80.5 nm | 0.421 | −4.20 ± 2.78 mV | 2,030.7 ± 117.3 nm | 0.466 | 16.47 ± 0.74 mV | 199.9 ± 0.8 nm | 0.171 | minimal differences in their buffering profile | effective carriers of siRNA
